Test results as given in paper PMC7072008 (ACS infectious diseases, 2020).

Assays:
TGR [1] = target: T1, TGR (Schistosoma mansoni, UniProt Q962Y6); assay: NADPH-dependence and reversibility of TGR inhibition; type: biochemical
T1 sequence (Q962Y6 1-598): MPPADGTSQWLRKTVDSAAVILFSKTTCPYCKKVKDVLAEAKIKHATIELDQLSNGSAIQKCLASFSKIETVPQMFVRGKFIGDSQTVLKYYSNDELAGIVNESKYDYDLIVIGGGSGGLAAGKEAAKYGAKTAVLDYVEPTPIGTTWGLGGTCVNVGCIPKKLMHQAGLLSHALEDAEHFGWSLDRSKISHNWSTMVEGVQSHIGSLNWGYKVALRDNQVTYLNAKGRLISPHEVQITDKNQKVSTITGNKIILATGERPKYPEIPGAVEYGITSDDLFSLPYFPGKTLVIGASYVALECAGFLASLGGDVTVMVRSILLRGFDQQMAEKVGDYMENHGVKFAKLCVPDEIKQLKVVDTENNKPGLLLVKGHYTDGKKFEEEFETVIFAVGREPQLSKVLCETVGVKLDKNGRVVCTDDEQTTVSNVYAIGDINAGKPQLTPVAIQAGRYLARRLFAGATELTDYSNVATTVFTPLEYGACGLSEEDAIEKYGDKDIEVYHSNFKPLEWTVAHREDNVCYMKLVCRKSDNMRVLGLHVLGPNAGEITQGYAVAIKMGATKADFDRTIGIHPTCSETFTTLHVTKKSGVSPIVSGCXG

TGR [2] = target: T1, TGR; assay: NADPH oxidase activity of inhibited TGR; type: biochemical
parasites = settings: 5 μM (physiological concentration); cited from earlier work
schistosomes = settings: cited from earlier work

## CC(=O)OC[C@H]1O[C@@H]([S-])[C@H](OC(C)=O)[C@@H](OC(C)=O)[C@@H]1OC(C)=O.CCP(CC)CC.[Au+] [auranofin]
TGR [1]; compounds at 20 times the IC50, TGR 50 nM, incubation without NADPH, desalting
  TGR inhibition in the absence of NADPH: found to inhibit TGR
TGR [1]; incubation with NADPH, activity 30 minutes and 3 hours after desalting
  Reversibility of TGR inhibition: irreversible inhibitors of TGR
TGR [2]; Amplex Red and horseradish peroxidase
  H2O2 production compared with untreated TGR: same low amounts of H2O2 as untreated TGR
TGR [2]; after treatment and desalting
  Decrease of NADPH consumption compared with uninhibited TGR: about 50%
parasites
  Killing of parasites in culture: kill parasites rapidly
schistosomes
  Cure of infected mice: partially cure infected mice
